Measurements reported in US12252701B2, “Chimeric antigen receptor T cell therapy” (KITE PHARMA, INC., priority 2020, dated 2025).

What was measured:
[1] = test system: NALM6.GFP.LUC.CD19 target cells; experiment: Serial killing assay of CAR-T, percent cytotoxicity by luciferase detection; conditions: repeat stimulation rounds
Experimental: The percent cytotoxicity to NALM6.GFP.LUC.CD19 target cells was measured by luciferase detection at each round.
In one embodiment, a serial killing assay is a combination of cell killing and how long it takes for CAR T cells to get exhausted under repeated stimulation. In one embodiment, a serial killing assay is a surrogate measure for CAR T cell persistence in vivo.

[2] = biological target: JAK1 (Homo sapiens, UniProt P23458); experiment: JAK kinase inhibition biochemical assay (Kinase-Glo Plus luminescence), JAK1
Experimental: JAK kinase inhibition in vitro biochemical assays were performed using Kinase-Glo Plus luminescence kinase assay kit (Promega). Kinase activity was measured by quantitating the amount of ATP remaining in solution following a kinase reaction. Luminescent signal from the assay was correlated with the amount of ATP present and was inversely correlated with the amount of kinase activity. Compounds were diluted in 10% DMSO and 5 μl of the dilution were added to a 50 μl reaction so that the final concentration of DMSO was 1% in all of the reactions. […] All enzymatic reactions were conducted at 30° C. for 45 minutes. The 50 μl reaction mixture contained 40 mM Tris, pH 7.4, 10 mM MgCl2, 0.1 mg/ml BSA, 1 mM DTT, 10 μM ATP, Kinase substrate and the enzyme. After the enzymatic reaction, 50 μl of Kinase-Glo Plus Luminescence kinase assay solution (Promega) were added to each reaction and incubated in the plate for 15 minutes at room temperature. Luminescence signal was measured using a Bio-Tek Synergy 2 microplate reader. Kinase activity was performed in duplicate at each concentration and data were analyzed using Graphpad Prism. The difference between luminescence intensities in the absence of Kinase (Lut) and in the presence of Kinase (Luc) was defined as 100% activity (Lut−Luc). Using luminescence signal (Lu) in the presence of the compound, % activity was calculated as: % activity={Lut−Lu)/(Lut−Luc)}×100%, where Lu=the luminescence intensity in the presence of compound.

[3] = test system: phospho-STAT-1, -3 and -5 in CD4, CD8 T cells and monocytes (CAR T product, PBMCs); experiment: Intracellular phospho-STAT-1, -3, -5 by flow cytometry in immune cell subsets of CAR T product and PBMCs; assay type: cell-based, human
Experimental: Further experiments were performed to look at impacts of JAK inhibitors on STAT phosphorylation in various immune cell subsets.

[4] = test system: Nalm6 cells; experiment: Serial killing assay, T-cell (CD4, CD8) and Nalm6 cell counts by flow cytometry; assay type: cell-based, human
Experimental: T-cell counts (CD4 and CD8) were assessed by flow cytometry.
Nalm6 cells were assessed by flow cytometry.
T-cell counts (CD4 and CD8) and Nalm6 cells were assessed by flow cytometry.

[5] = E:T ratio of 1:1, dose titration

Chain of JAK1 (P23458 whole entry): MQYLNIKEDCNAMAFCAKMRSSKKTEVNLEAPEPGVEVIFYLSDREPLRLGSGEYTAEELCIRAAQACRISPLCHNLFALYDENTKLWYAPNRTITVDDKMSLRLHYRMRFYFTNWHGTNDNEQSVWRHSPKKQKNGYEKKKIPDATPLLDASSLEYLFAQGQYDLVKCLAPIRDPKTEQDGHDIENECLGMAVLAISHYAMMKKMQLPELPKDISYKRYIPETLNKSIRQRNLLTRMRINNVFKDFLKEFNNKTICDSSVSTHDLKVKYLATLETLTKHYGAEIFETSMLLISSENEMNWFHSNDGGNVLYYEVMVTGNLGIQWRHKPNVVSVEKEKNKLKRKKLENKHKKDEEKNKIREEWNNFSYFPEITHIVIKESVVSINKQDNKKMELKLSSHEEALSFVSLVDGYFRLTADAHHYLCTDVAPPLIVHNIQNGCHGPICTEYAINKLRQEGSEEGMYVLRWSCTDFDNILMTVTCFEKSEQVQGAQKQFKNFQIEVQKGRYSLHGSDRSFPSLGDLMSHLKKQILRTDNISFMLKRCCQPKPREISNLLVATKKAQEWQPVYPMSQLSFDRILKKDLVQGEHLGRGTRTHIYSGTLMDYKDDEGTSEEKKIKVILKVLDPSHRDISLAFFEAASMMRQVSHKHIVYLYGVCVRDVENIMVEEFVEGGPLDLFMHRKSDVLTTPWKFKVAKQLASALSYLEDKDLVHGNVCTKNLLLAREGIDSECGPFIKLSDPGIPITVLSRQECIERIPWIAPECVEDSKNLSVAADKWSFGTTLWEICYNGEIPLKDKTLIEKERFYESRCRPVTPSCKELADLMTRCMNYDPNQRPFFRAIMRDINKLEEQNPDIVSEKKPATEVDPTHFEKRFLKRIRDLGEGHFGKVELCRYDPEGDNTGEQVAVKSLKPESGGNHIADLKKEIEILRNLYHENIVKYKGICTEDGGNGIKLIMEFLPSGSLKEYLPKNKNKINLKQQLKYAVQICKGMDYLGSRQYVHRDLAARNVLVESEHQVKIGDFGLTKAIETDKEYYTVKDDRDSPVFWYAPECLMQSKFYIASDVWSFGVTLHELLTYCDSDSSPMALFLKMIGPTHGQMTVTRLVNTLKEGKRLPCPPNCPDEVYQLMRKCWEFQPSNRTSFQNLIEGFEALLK

Nc1nc2cccc(-c3ccc(CN4CCS(=O)(=O)CC4)cc3)n2n1 [GS-829845]
impact on CAR-T serial killing (percent cytotoxicity) ([1]; E:T of 1:1, dose titration): enhance serial killing
impact on CAR-T serial killing (percent cytotoxicity) ([1]; E:T of 1:3, dose titration): no impact
less potency than parent compound filgotinib [2]: about 10 fold
IC50 ([2]; 10 μM ATP): 448 nM
Primary Cell IL-6 pSTAT1 signaling (% inhibition) ([3]; CD4 CART cells): 18%
Primary Cell IL-6 pSTAT3 signaling (% inhibition) ([3]; CD4 CART cells): 6%
Primary Cell IL-6 pSTAT5 signaling (% inhibition) ([3]; CD4 CART cells): 29%
Primary Cell IL-6 pSTAT1 signaling (% inhibition) ([3]; CD8 CART cells): 11%
Primary Cell IL-6 pSTAT3 signaling (% inhibition) ([3]; CD8 CART cells): 2%
Primary Cell IL-6 pSTAT5 signaling (% inhibition) ([3]; CD8 CART cells): 17%
effect on phosphorylated-STAT-1, -STAT-3 and -STAT5 levels ([3]; IL-6 stimulation): only a fraction of the filgotinib suppression levels
Primary cell GM-CSF-pSTAT5, inhibition ([3]; Monocytes within bulk PBMCs): 3%
Primary Cell IL-6 pSTAT1 signaling (% inhibition) ([3]; PBMC CD4 T cells): 25%
Primary Cell IL-6 pSTAT3 signaling (% inhibition) ([3]; PBMC CD4 T cells): 15%
Primary Cell IL-6 pSTAT5 signaling (% inhibition) ([3]; PBMC CD4 T cells): 36%
Primary Cell IL-6 pSTAT1 signaling (% inhibition) ([3]; PBMC CD8 T cells): 10%
Primary Cell IL-6 pSTAT3 signaling (% inhibition) ([3]; PBMC CD8 T cells): 11%
Primary Cell IL-6 pSTAT5 signaling (% inhibition) ([3]; PBMC CD8 T cells): 24%
Primary Cell IL-6 pSTAT1 signaling (% inhibition) ([3]; PBMC Monocytes): 24%
Primary Cell IL-6 pSTAT3 signaling (% inhibition) ([3]; PBMC Monocytes): 17%
Primary Cell IL-6 pSTAT5 signaling (% inhibition) ([3]; PBMC Monocytes): 21%
Primary cell GM-CSF-pSTAT5, inhibition ([3]; T cells within bulk PBMCs): 16%
persistence of T-cells (CD4 and CD8 counts) [4, 5]: Improved persistence
serial killing assessed by Nalm6 cells (flow cytometry) [4, 5]: enhance serial killing in a dose-dependent manner
impact on T-cell counts and Nalm6 cell counts ([4]; E:T ratio of 1:3, dose titration): not impacted
